Key:
[1] = test system: H. pylori bacteria (ATCC 43504); experiment: H. pylori bacteria-proliferation inhibitory effect under in vitro (OD values at 600 nm); type: cell-based, Helicobacter pylori
[2] = type: physicochemical
Method: […]-beta-O-Et in a defined constant amount of the H. pylori bacteria-containing culture medium, which was cultured for 3 days, was measured by high performance liquid chromatography. A concentration of […]-beta-O-Et therein was determined by conversion using a calibration curve which was beforehand prepared from various definite concentrations of standard […]-beta-O-Et and peak areas of high pressure liquid chromatogram thereof. According to the determination, 6% of […]-beta-O-Et in the defined constant amount of the H. pylori bacteria-containing culture medium was reduced in comparison with initial concentration thereof. Consequently it was obvious that 6% of […]-beta-O-Et in the H. pylori bacteria-containing culture medium was decomposed to GlcNAc and ethanol (EtOH).

[3] = test system: H. pylori bacteria (ATCC 43504 strain); experiment: Count of viable H. pylori bacteria (colony count) from stomach of orally infected meriones unguiculatus; type: in vivo
Excerpt: Antibacterial activities of GlcNAc derivatives towards H. pylori bacteria were investigated under in vivo by an experimental system using meriones unguiclatus infected orally with H. pylori bacteria.
Type strain of H. pylori bacteria (ATCC 43504 strain) was used as strain for infection. After stock strain thereof was recovered in Brain Heart Infusion (BHI) culture medium, which is available from Nissui Pharmaceutical Co., Ltd., including 10% horse serum, which is available from Dainippon Sumitomo Pharma Co., Ltd., and then cultured in the culture medium at 37° C. under microaerophilic condition using a microaerophilic incubator for 3 days. Finally the concentration thereof was adjusted to approximately 5×10^6 colony-forming-unit/mL (CFU/mL).
The meriones unguiculatus were fasted from 24 hours earlier of infection of Helicobacter pylori bacteria to 4 hours later of the infection thereof.
Approximately 1.0 mL of the liquid culture medium including Helicobacter pylori bacteria was administrated orally as 5×10^6 CFU/individual-animal to the fasted meriones unguiculatus. The day of infection was defined as initial day (i.e. Day 0)
Specimens prepared by using GlcNAcl-beta-O-Et of N-acetyl-glucosamine derivative according to following concentration of each group were administered.
Number of animal: 10 animals per one group
Means for administration: dietary administration
Stomach was respectively isolated from thus 10 animals of each group, and added into a centrifuging tube containing 5 mL of a phosphate buffer solution (PBS) to be homogenized with Polytron Homogenizer. 0.1 mL of the obtained homogenate was spread on Poamedia Vi Helico-S agar medium which is available from Eiken Chemical Co., Ltd. And then the bacterium were cultured at 37° C. under microaerophilic condition as same as above-mentioned incubation for culture. The formed violet colonies were counted.
They were carried out by above-mentioned statistical procedure.

[4] = Body weight and general remarks of symptoms of infected meriones unguiculatus under dietary administration
Method: 4 weeks-old male meriones unguiculatus (SPF: specific-pathogen free), which were purchased from Kyudo Co., Ltd. (Br. Yoshitomi), were preliminarily reared for 23 days and then used for the experiments. The meriones unguiculatus were reared temperature of 24 plus or minus 3° C. and under relative humidity of 55 plus or minus 15% in all room for infected animals with conditions of lighting from a.m. 7 to p.m. 7 and ventilating 18 times per hour during preliminarily reared period and experiment period. 2 or 3 meriones unguiculatus were reared in a cage. All meriones unguiculates could freely get purified water as drinkable water and powdery feed MF as dry feed which is available from Oriental Yeast Co., Ltd. Incidentally the meriones unguiculatus were marked by application of dyestuff of picric acid solution for individual discrimination.
Amount of administration: 0.3% of the specimen blended with the powdery feed
The day of infection was defined as day 0. At 1st, 3rd, 6th, 10th, 13th, 17th, 20th, 24th, and 26th days, body weight was measured by a weight scale respectively.
Daily variance of the general remarks of symptoms thereof was observed.
As regards to body weight and count of colonies, average plus/minus standard error thereof in all groups was respectively calculated. […]

CCO[C@@H]1O[C@H](CO)[C@@H](O)[C@H](O)[C@H]1NC(C)=O [GlcNAcl-beta-O-Et, Ethoxy-2-acetamide-2-deoxy-N-acetyl-beta-D-glucosaminide]
proliferation ability of H. pylori bacteria ([1]; culture medium containing not less than 5 mM): not more than 50% | proliferation ability of H. pylori bacteria ([1]; culture medium containing not less than 20 mM): not more than 5% | H. pylori bacteria proliferation inhibited ([1]; not less than 25 or 50 mM, cultivation 96 hours, vs negative control, FIG. 1): not less than 50% | stability in the culture medium [2]: stable | reduction of concentration in comparison with initial concentration (decomposed to GlcNAc and ethanol) ([2]; H. pylori bacteria-containing culture medium cultured for 3 days, HPLC): 6% | count of H. pylori bacteria reduced in comparison with the control group ([3]; 300 mg/kg/day dietary, all individuals, FIG. 5(a)): ½ to ⅓ | count of H. pylori bacteria reduced in comparison with the control group ([3]; 300 mg/kg/day dietary, outliers rejected by Smirnov-Grubbs test, FIG. 5(b)): ⅙ | statistical significant difference of the body weight increase vs control group ([4]; 300 mg/kg/day dietary administration (0.3% in feed), to day 26, FIG. 4): not observed | abnormal general remarks of symptoms ([4]; 300 mg/kg/day dietary administration, daily observation): could not be observed

CC(=O)N[C@H]1C(O)O[C@H](CO)[C@@H](O)[C@@H]1O (stereo partly drawn) [GlcNAc, N-acetyl-glucosamine, reference compound]
proliferation inhibitory effect ([1]; concentration as high as 50 mM, FIG. 2): does not show any proliferation inhibitory effect

CCO[C@H]1O[C@H](CO)[C@@H](O)[C@H](O)[C@H]1NC(C)=O [GlcNAcl-alpha-O-Et]
effect on inhibiting the proliferation of H. pylori bacteria under in vitro ([1]; in comparison with GlcNAcl-beta-O-Et, FIG. 6): did not almost indicate the effect | statistical significant difference of the count of viable bacteria vs control group ([3]; 300 mg/kg/day, FIG. 8): not observed at all | count of H. pylori bacteria reduced in comparison with the control group ([3]; 1000 mg/kg/day, FIG. 8): ⅓ | statistical significant difference of the count of viable bacteria vs control group ([3]; 1000 mg/kg/day, FIG. 8): eventually observed

CCO [ethanol, reference compound]
proliferation inhibitory effect ([1]; 5 volume % (856 mM), FIG. 3): shows proliferation inhibitory effect barely

Source: US8859511B2, “Proliferation inhibitor of Helicobacter pylori bacteria” (The Noguchi Institute, priority 2008, dated 2014)
